Reference: ChEMBL document CHEMBL4251673, “Structurally Diverse Diterpenoids from Sandwithia guyanensis” (J Nat Prod, 2018)
pEC50: −log10 of the molar value.

Columns and labels:
Chikungunya virus = experiment: Antiviral activity against Chikungunya virus Indian Ocean 889 infected in African green monkey Vero cells assessed as inhibition of virus-induced cytopathic effect after 7 days by MTS method; type: functional, organism-based; conditions: Indian Ocean 889, Vero, 168 h
[1] = Selectivity index, ratio of CC50 for African green monkey Vero cells to EC50 for Chikungunya virus Indian Ocean 889 infected in African green monkey Vero cells; type: toxicity; conditions: read-out: Ratio CC50/EC50

For `C/C1=C\[C@@H]2[C@H](CC[C@]3(C)O[C@H]3C3=C(C1=O)[C@@H](O)[C@H](C)C3=O)C2(C)C`, the pEC50 (Chikungunya virus) was 4.85 and the selectivity ratio [1] was 1.92.
